According to patent publication US12215354B2, “Differentiation of human embryonic stem cells into single hormonal insulin positive cells” (Janssen Biotech, Inc., priority 2011, dated 2025):

Tested on: human embryonic stem cell line H1
Experiment: Real-time PCR gene expression, timing of BMP inhibition at stage 3 (Example 3)
Format: cell-based
Method: Cells of the human embryonic stem cell line H1 at various passages (passage 40 to passage 52) were seeded as single cells at a density of 100,000 cells/cm^2 on MATRIGEL™ (1:30 dilution) coated dishes in mTesr™1 media supplemented with 10 μM of Y27632. Forty eight hours post seeding, cultures were differentiated into cells of the pancreatic endocrine lineage as follows: • a. Stage 1 (Definitive Endoderm (DE)−4 days): Prior to start of DE, the cells were washed and incubated with incomplete PBS (no Mg or Ca) for 30 seconds followed by incubation in S1 media. Human embryonic stem cells cultured as single cells on MATRIGEL™-coated dishes were treated for one day with MCDB-131 medium supplemented with 0.1% fatty acid-free BSA, 0.0012 g/ml sodium bicarbonate, 1× GLUTAMAX™, 2.5 mM D-Glucose, 100 ng/ml GDF8, 1.5 μM MCX compound (GSK3B inhibitor). Cells were then treated for […] (days 2-4) with MCDB-131 medium supplemented with 0.1% fatty acid-free BSA, 0.0012 g/ml sodium bicarbonate, 1× GLUTAMAX™, 2.5 mM glucose, and 100 ng/ml GDF8. • b. Stage 2 (Primitive gut tube−3 days): Stage 1 cells were treated for three days with MCDB-131 medium supplemented with 0.1% fatty acid-free BSA, 0.0012 g/ml sodium bicarbonate, 1× GLUTAMAX™, 2.5 mM D-Glucose, and 50 ng/ml FGF7. • c. Stage 3 (Foregut−3 days): Stage 2 cells were treated with MCDB-131 medium supplemented with a 1:200 dilution of ITS-X, 2.5 mM Glucose, 1× GLUTAMAX™, 0.0015 g/ml sodium bicarbonate, 2% fatty acid-free BSA, 0.25 μM SANT-1, 20 ng/ml of Activin-A, 2 μM RA, 50 ng/ml FGF7, 100 nM LDN-193189 (on day 1 only or for the duration of stage 3), and 200 nM TPB. In some cultures, LDN-193189 was removed from stage 3. • d. Stage 4 (Pancreatic foregut precursor-3 days): Stage 3 cells were treated with MCDB-131 medium supplemented with a 1:200 dilution of ITS-X, 2.5 mM Glucose, 1× GLUTAMAX™, 0.0015 g/ml sodium bicarbonate, 2% fatty acid-free BSA, 0.25 μM SANT-1, 100 nM TPB, 200 nM LDN-193189, 2 μM ALk5 inhibitor, and 100 nM CYP26A inhibitor for three days. • e. […]

[1] = at stage 4, 100 nM LDN-193189 on first day of stage 3, removed at days 2-3

Compound: c1ccc2c(-c3cnn4cc(-c5ccc(N6CCNCC6)cc5)cnc34)ccnc2c1 [LDN-193189]
- expression of SOX2 (at S3-S4, LDN-193189 retained for the duration of stage 3): very high expression
- CDX2 and SOX2 expression [1]: decreasing
- expression of NGN3 and NeuroD [1]: significantly boosted
